Results: patent US7442805B2, “Substituted sulfonamide-indoles” (Wyeth, priority 2003, dated 2008)

Experiments:
[1] = target: T1, recombinant human plasminogen activator inhibitor-1 (PAI-1) (Homo sapiens, UniProt P05121); experiment: Primary screen for the PAI-1 inhibition (chromogenic tPA activity assay); type: biochemical; conditions: pH 6.6, 140 nM PAI-1, 70 nM tPA; for inhibition at 10 µM: 10 μM test compound; for inhibition at 25 µM: 25 μM test compound
T1 construct: purchased Molecular Innovations, Royal Oak, Mich
T1 sequence (P05121 24-402): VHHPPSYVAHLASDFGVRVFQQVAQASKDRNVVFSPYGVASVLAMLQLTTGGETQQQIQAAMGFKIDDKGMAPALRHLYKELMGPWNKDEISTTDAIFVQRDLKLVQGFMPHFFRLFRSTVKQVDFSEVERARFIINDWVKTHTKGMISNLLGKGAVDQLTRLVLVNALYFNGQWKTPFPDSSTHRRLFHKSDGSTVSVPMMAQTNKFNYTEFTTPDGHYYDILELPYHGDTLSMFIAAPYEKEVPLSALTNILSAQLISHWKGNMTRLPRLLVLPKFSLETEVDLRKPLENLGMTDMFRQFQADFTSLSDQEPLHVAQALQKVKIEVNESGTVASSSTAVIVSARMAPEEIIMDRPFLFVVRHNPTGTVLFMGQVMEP
Method: Primary Screen for the PAI-1 Inhibition
Test compounds are dissolved in DMSO at a final concentration of 10 mM, then diluted 100× in physiologic buffer. The inhibitory assay is initiated by the addition of the test compound (1-100 μM final concentration, maximum DMSO concentration of 0.2%) in a pH 6.6 buffer containing 140 nM recombinant human plasminogen activator inhibitor-1 (PAI-1; Molecular Innovations, Royal Oak, Mich.). Following a 1 hour incubation at room temperature, 70 nM of recombinant human tissue plasminogen activator (tPA) is added, and the combination of the test compound, PAI-1 and tPA is incubated for an additional 30 minutes. Following the second incubation, Spectrozyme-tPA (American Diagnostica, Greenwich, Conn.), a chromogenic substrate for tPA, is added and absorbance read at 405 nm at 0 and 60 minutes. Relative PAI-1 inhibition is equal to the residual tPA activity in the presence of the test compound and PAI-1. Control treatments include the complete inhibition of tPA by PAI-1 at the molar ratio employed (2:1), and the absence of any effect of the test compound on tPA alone.

human PAI-1 = human PAI-1 (Homo sapiens, UniProt P05121); experiment: Assay for determining IC50 of inhibition of PAI-1 (tPA-coated plate, antibody detection of active PAI-1); type: binding; conditions: active PAI-1 bound to tPA-coated plate; pH 7.5
human PAI-1, sequence (P05121 24-402): as above
Method: Assay for determining IC50 of Inhibition of PAI-1
This assay is based upon the non-SDS dissociable interaction between tPA and active PAI-1. Assay plates are initially coated with human tPA (10 μg/ml). Test compounds of the present invention are dissolved in DMSO at 10 mM, then diluted with physiologic buffer (pH 7.5) to a final concentration of […]. Test compounds are incubated with human PAI-1 (50 ng/ml) for 15 minutes at room temperature. The tPA-coated plate is washed with a solution of 0.05% Tween 20 and 0.1% BSA, then the plate is blocked with a solution of 3% BSA. An aliquot of the substituted sulfonamide indole/PAI-1 solution is then added to the tPA-coated plate, incubated at room temperature for 1 hour, and washed. Active PAI-1 bound to the plate is assessed by adding an aliquot of a 1:1000 dilution of the 33B8 monoclonal antibody against human PAI-1, and incubating the plate at room temperature for 1 hour (Molecular Innovations, Royal Oak, Mich.). The plate is again washed, and a solution of goat anti-mouse IgG-alkaline phosphatase conjugate is added at a 1:50,000 dilution in goat serum. The plate is incubated 30 minutes at room temperature, washed, and a solution of alkaline phosphatase substrate is added. The plate is incubated 45 minutes at room temperature, and color development is determined at OD405 nm. The quantitation of active PAI-1 bound to tPA at varying concentrations of the test compound is used to determine the IC50. Results are analyzed using a logarithmic best-fit equation. The assay sensitivity is 5 ng/ml of human PAI-1 as determined from a standard curve ranging from 0-100 ng/ml.

Compound | inhibition at 10 µM [1] [%] | inhibition at 25 µM [1] [%] | IC50 (human PAI-1) [µM]
O=C(O)c1c(-c2ccccc2)c2cc(NS(=O)(=O)c3ccc(OC(F)(F)F)cc3)ccc2n1Cc1ccccc1 [Example 1, 1-benzyl-3-phenyl-5-({[4-(trifluoromethoxy)phenyl]sulfonyl}amino)-1H-indole-2-carboxylic acid] | 33 | 81 | 8.3
O=C(O)c1c(-c2ccccc2)c2cc(NS(=O)(=O)c3cccc4cccnc34)ccc2n1Cc1ccccc1 [Example 2, 1-benzyl-3-phenyl-5-[(quinolin-8-ylsulfonyl)amino]-1H-indole-2-carboxylic acid] | 8 | 43 | –
CC(C)(C)c1ccc(S(=O)(=O)Nc2ccc3c(c2)c(-c2ccccc2)c(C(=O)O)n3Cc2ccccc2)cc1 [Example 3, 1-benzyl-5-{[(4-tert-butylphenyl)sulfonyl]amino}-3-phenyl-1H-indole-2-carboxylic acid] | 41 | 82 | 28.7
O=C(O)c1c(-c2ccccc2)c2cc(NS(=O)(=O)c3ccc(-c4ccccc4)cc3)ccc2n1Cc1ccccc1 [Example 4, 1-benzyl-5-[(1,1′-biphenyl-4-ylsulfonyl)amino]-3-phenyl-1H-indole-2-carboxylic acid] | 44 | 61 | 23
Cn1c(C(=O)O)c(-c2ccccc2)c2cc(NS(=O)(=O)c3ccc(OC(F)(F)F)cc3)ccc21 [Example 5, 1-methyl-3-phenyl-5-({[4-(trifluoromethoxy)phenyl]sulfonyl}amino)-1H-indole-2-carboxylic acid] | – | 19 | –
Cn1c(C(=O)O)c(-c2ccccc2)c2cc(NS(=O)(=O)c3ccc(C(C)(C)C)cc3)ccc21 [Example 6, 5-{[(4-tert-butylphenyl)sulfonyl]amino}-1-methyl-3-phenyl-1H-indole-2-carboxylic acid] | – | 46 | –
Cn1c(C(=O)O)c(-c2ccccc2)c2cc(NS(=O)(=O)c3ccc(-c4ccccc4)cc3)ccc21 [Example 7, 5-[(1,1′-biphenyl-4-ylsulfonyl)amino]-1-methyl-3-phenyl-1H-indole-2-carboxylic acid] | 11 | 68 | –
CC(C)C[C@H](NC(=O)c1c(-c2ccccc2)c2cc(NS(=O)(=O)c3ccc(OC(F)(F)F)cc3)ccc2n1C)C(=O)O [Example 8, N-{[1-methyl-3-phenyl-5-({[4-(trifluoromethoxy)phenyl]sulfonyl}amino)-1H-indol-2-yl]carbonyl}-L-leucine] | 18 | 73 | –
Cn1c(C(=O)N[C@@H](Cc2ccccc2)C(=O)O)c(-c2ccccc2)c2cc(NS(=O)(=O)c3ccc(-c4ccccc4)cc3)ccc21 [Example 9, N-({5-[(1,1′-biphenyl-4-ylsulfonyl)amino]-1-methyl-3-phenyl-1H-indol-2-yl}carbonyl)-L-phenylalanine] | 8 | 73 | –
CC(C)C[C@H](NC(=O)c1c(-c2ccccc2)c2cc(NS(=O)(=O)c3ccc(-c4ccccc4)cc3)ccc2n1C)C(=O)O [Example 10, N-({5-[(1,1′-biphenyl-4-ylsulfonyl)amino]-1-methyl-3-phenyl-1H-indol-2-yl}carbonyl)-L-leucine] | 15 | 74 | –
Cn1c(C(=O)N[C@@H](Cc2ccccc2)C(=O)O)c(-c2ccccc2)c2cc(NS(=O)(=O)c3ccc(C(C)(C)C)cc3)ccc21 [Example 11, N-[(5-{[(4-tert-butylphenyl)sulfonyl]amino}-1-methyl-3-phenyl-1H-indol-2-yl)carbonyl]-L-phenylalanine] | 15 | 77 | –
CC(C)C[C@H](NC(=O)c1c(-c2ccccc2)c2cc(NS(=O)(=O)c3ccc(C(C)(C)C)cc3)ccc2n1C)C(=O)O [Example 12, N-[(5-{[(4-tert-butylphenyl)sulfonyl]amino}-1-methyl-3-phenyl-1H-indol-2-yl)carbonyl]-L-leucine] | 14 | 64 | –
CS(=O)(=O)Nc1ccc2c(c1)c(-c1ccccc1)c(C(=O)O)n2Cc1ccc(-c2ccccc2)cc1 [Example 13, 1-(1,1′-biphenyl-4-ylmethyl)-5-[(methylsulfonyl)amino]-3-phenyl-1H-indole-2-carboxylic acid] | 24 | 62 | –
O=C(O)c1c(-c2ccccc2)c2cc(NS(=O)(=O)c3ccccc3)ccc2n1Cc1ccc(-c2ccccc2)cc1 [Example 14, 1-(1,1′-biphenyl-4-ylmethyl)-3-phenyl-5-[(phenylsulfonyl)amino]-1H-indole-2-carboxylic acid] | 77 | 87 | 28
CS(=O)(=O)Nc1ccc2c(c1)c(-c1ccccc1)c(C(=O)O)n2C(c1ccccc1)c1ccccc1 [Example 15, 1-benzhydryl-5-[(methylsulfonyl)amino]-3-phenyl-1H-indole-2-carboxylic acid] | 10 | 36 | –
O=C(O)c1c(-c2ccccc2)c2cc(NS(=O)(=O)c3ccccc3)ccc2n1C(c1ccccc1)c1ccccc1 [Example 16, 1-benzhydryl-3-phenyl-5-[(phenylsulfonyl)amino]-1H-indole-2-carboxylic acid] | 68 | 89 | –
CC(C)(C)c1ccc(-c2c(C(=O)O)n(Cc3ccccc3)c3ccc(NS(=O)(=O)c4ccc(OC(F)(F)F)cc4)cc23)cc1 [Example 17, 1-Benzyl-3-(4-tert-butylphenyl)-5-({[4-(trifluoromethoxy)phenyl]sulfonyl}amino)-1H-indole-2-carboxylic acid] | 43 | 84 | –
O=C(O)c1c(-c2ccc3[nH]ccc3c2)c2cc(NS(=O)(=O)c3ccccc3)ccc2n1Cc1ccccc1 [Example 18, 1-benzyl-5-[(phenylsulfonyl)amino]-1H,1′H-3,5′-biindole-2-carboxylic acid] | 19 | 55 | –
O=C(O)c1[nH]c2ccc(NS(=O)(=O)c3ccc(OC(F)(F)F)cc3)cc2c1-c1ccccc1 [Example 19, 3-phenyl-5-({[4-(trifluoromethoxy)phenyl]sulfonyl}amino)-1H-indole-2-carboxylic acid] | 12 | 50 | –
CC(C)(C)c1ccc(S(=O)(=O)Nc2ccc3[nH]c(C(=O)O)c(-c4ccccc4)c3c2)cc1 [Example 20, 5-{[(4-tert-butylphenyl)sulfonyl]amino}-3-phenyl-1H-indole-2-carboxylic acid] | 20 | 81 | 28.4
O=C(O)c1[nH]c2ccc(NS(=O)(=O)c3ccc(-c4ccccc4)cc3)cc2c1-c1ccccc1 [Example 21, 5-[(1,1′-biphenyl-4-ylsulfonyl)amino]-3-phenyl-1H-indole-2-carboxylic acid] | 29 | 86 | 19.5
